One test concerns SK-HEP1. Nature of the test: Antiproliferative activity against human SKHEP1 cells after 72 hrs by SRB assay. To be noted: SK-HEP1, 72 h. On the technique in general: In SRB staining, fixed cells bind dye roughly in proportion to their protein.
For the next test, the system named is MDA-MB-231. Briefly: Antiproliferative activity against human MDA-MB-231 cells after 72 hrs by SRB assay. Conditions: MDA-MB-231, 72 h.
For the next test, the system named is SNU-638. Nature of the test: Antiproliferative activity against human SNU638 cells after 72 hrs by SRB assay. To be noted: SNU-638, 72 h.
The subject of another test is HCT-116. Nature of the test: cells. Conditions: Homo sapiens, HCT-116, 72 h.
A further test relates to A549. Briefly: cells. Conditions: Homo sapiens, A549, 72 h.
The target of test [1] is PI3-kinase p110-alpha/p85-alpha (Homo sapiens, UniProt P42336). Nature of the test: Inhibition of N-terminal His6-tagged recombinant full-length human p110alpha/untagged recombinant full length human p85alpha expressed in baculovirus infected Sf21 insect cells using PIP2 as substrate by HTRF […] assay.
PI3-kinase p110-alpha/p85-alpha, sequence (P27986 whole entry): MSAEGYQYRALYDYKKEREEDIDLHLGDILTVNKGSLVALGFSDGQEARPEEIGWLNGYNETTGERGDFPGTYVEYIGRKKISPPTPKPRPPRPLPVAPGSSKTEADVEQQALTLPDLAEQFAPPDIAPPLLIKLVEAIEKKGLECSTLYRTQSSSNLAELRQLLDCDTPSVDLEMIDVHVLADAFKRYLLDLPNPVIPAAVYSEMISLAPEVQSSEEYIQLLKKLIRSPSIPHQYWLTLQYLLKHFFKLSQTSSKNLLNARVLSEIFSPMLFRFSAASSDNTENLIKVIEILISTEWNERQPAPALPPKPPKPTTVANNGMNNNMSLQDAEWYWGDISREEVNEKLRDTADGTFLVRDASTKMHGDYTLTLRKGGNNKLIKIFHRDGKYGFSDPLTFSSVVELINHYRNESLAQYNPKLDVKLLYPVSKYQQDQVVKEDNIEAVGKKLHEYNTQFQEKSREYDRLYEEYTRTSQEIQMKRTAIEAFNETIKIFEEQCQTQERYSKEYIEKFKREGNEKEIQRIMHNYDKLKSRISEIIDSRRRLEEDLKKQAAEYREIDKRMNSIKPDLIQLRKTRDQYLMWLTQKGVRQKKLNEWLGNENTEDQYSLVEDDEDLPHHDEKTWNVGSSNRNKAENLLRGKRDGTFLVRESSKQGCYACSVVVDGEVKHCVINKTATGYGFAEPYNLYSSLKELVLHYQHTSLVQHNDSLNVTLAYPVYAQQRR
PI3-kinase p110-alpha/p85-alpha, sequence (P42336 whole entry): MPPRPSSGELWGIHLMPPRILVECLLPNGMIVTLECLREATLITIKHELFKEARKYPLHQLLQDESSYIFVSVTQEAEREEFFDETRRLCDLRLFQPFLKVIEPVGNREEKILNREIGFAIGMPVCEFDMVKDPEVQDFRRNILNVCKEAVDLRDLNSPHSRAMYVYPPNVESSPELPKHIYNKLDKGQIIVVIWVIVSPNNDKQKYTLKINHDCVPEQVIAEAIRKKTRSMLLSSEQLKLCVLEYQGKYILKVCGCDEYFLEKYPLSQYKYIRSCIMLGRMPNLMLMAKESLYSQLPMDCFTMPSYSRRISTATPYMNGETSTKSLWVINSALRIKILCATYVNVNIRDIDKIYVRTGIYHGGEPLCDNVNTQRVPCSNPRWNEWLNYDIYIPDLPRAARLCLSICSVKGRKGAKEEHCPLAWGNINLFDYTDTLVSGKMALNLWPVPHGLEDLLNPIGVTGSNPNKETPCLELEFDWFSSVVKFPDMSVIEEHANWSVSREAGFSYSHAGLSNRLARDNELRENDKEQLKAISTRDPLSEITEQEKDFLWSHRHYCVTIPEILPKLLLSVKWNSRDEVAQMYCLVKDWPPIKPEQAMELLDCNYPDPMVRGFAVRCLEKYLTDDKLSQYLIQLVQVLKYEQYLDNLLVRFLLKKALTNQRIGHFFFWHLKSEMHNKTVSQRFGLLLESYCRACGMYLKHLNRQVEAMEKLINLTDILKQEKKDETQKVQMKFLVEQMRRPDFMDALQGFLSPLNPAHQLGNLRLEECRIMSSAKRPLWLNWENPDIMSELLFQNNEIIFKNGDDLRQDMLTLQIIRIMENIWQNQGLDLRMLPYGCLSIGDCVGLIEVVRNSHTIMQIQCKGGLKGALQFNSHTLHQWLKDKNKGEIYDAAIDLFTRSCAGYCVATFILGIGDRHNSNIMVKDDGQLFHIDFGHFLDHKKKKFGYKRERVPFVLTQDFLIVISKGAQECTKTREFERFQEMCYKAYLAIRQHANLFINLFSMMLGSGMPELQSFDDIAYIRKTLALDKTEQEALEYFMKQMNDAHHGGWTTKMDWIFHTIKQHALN
The next test deals with HUVEC. Nature of the test: Cytotoxicity against HUVEC after 72 hrs by SRB assay. Conditions: Homo sapiens.
The target of test [2] is Phosphatidylinositol 4,5-bisphosphate 3-kinase catalytic subunit beta isoform (Homo sapiens, UniProt P42338). Briefly: Inhibition of PI3Kbeta (unknown origin) using PIP2 as substrate by HTRF […] assay. (TR-FRET usually uses a lanthanide donor and a delayed reading to cut background.)
Phosphatidylinositol 4,5-bisphosphate 3-kinase catalytic subunit beta isoform, sequence (P42338 whole entry, canonical isoform): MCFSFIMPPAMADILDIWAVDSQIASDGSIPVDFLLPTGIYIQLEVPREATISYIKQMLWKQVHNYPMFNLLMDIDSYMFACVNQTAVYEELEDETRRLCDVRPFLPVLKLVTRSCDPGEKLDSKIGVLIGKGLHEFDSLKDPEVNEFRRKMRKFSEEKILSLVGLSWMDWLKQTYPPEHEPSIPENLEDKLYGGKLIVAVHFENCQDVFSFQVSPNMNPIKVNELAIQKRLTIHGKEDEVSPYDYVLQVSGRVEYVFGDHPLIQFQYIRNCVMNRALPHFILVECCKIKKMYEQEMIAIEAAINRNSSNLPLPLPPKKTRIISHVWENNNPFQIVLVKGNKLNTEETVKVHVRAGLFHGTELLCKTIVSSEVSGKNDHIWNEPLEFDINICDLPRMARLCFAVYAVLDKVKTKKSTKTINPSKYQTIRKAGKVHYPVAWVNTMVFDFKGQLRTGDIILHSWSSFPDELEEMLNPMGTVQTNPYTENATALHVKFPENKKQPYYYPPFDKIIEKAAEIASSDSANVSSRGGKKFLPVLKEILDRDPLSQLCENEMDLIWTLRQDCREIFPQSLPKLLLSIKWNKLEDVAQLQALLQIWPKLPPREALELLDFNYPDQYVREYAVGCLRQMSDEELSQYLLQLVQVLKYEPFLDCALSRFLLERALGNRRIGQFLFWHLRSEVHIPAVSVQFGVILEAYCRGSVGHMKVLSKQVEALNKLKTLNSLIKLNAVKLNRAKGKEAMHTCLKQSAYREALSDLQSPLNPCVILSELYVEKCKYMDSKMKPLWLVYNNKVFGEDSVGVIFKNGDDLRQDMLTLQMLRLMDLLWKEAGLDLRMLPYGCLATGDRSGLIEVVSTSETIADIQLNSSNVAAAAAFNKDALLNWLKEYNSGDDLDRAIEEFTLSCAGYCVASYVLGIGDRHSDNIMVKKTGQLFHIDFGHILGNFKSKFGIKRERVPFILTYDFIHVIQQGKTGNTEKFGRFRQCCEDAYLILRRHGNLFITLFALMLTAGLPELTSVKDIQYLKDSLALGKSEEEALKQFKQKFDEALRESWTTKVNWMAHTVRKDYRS
Test [3] addresses Phosphatidylinositol 4,5-bisphosphate 3-kinase catalytic subunit gamma isoform (Homo sapiens, UniProt P48736). Briefly: Inhibition of N-terminal His6-tagged recombinant full-length human PI3Kgamma expressed in baculovirus infected Sf21 insect cells using PIP2 as substrate by HTRF […] assay.
The target of test [4] is PI3-kinase p110-delta/p85-alpha (Homo sapiens, UniProt O00329). Briefly: Inhibition of p110delta/p85alpha (unknown origin) using PIP2 as substrate by HTRF […] assay. The class given is protein-complex assay.
PI3-kinase p110-delta/p85-alpha, sequence (P27986 whole entry): as the sequence (P27986 whole entry) above
PI3-kinase p110-delta/p85-alpha, sequence (O00329 whole entry): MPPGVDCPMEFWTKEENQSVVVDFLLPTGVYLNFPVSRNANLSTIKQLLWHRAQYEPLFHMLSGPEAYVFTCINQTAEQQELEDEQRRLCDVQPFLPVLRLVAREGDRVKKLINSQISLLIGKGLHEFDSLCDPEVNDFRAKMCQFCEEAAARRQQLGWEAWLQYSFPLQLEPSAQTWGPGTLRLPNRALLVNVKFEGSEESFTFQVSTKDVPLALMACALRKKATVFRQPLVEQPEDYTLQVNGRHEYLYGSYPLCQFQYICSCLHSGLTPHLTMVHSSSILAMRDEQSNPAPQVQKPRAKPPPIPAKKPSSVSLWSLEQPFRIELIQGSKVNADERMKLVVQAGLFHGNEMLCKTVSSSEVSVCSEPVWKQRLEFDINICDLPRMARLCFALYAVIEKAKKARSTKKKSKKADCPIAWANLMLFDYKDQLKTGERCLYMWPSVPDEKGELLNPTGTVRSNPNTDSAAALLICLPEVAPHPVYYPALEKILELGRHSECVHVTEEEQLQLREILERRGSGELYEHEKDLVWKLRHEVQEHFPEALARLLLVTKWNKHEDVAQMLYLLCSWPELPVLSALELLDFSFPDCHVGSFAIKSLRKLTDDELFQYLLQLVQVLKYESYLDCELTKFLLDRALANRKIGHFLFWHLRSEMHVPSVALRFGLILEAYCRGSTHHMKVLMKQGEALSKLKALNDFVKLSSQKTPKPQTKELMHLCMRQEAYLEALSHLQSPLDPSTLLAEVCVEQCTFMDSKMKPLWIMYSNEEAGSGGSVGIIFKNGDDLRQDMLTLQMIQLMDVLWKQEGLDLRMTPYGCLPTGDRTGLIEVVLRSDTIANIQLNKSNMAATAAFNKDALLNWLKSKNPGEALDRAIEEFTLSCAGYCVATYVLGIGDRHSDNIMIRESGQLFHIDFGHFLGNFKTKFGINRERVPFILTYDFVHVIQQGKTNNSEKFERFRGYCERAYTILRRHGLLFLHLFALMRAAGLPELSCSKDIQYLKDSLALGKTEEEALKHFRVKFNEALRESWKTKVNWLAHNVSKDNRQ
For test [5], the species on record is Homo sapiens. Nature of the test: Inhibition of PI3K in human HCT116 cells assessed as reduction in Akt phosphorylation at Ser473 residue at 0.5 uM after 24 hrs by Western blot analysis. The class given is cell-based. On the technique in general: Immunoblotting shows a protein as a band on a membrane.
The species entered for test [6] is Homo sapiens. Nature of the test: Inhibition of PI3K in human HCT116 cells assessed as reduction in Akt phosphorylation at Ser473 residue after 24 hrs by Western blot analysis. Type of test: cell-based.

pIC50: −log10 of the molar value. Activity calls are given as the source filed them. No cut-off for these calls is given here.

Phosphatidylinositol 4,5-bisphosphate 3-kinase catalytic subunit gamma isoform, sequence (P48736 whole entry, canonical isoform): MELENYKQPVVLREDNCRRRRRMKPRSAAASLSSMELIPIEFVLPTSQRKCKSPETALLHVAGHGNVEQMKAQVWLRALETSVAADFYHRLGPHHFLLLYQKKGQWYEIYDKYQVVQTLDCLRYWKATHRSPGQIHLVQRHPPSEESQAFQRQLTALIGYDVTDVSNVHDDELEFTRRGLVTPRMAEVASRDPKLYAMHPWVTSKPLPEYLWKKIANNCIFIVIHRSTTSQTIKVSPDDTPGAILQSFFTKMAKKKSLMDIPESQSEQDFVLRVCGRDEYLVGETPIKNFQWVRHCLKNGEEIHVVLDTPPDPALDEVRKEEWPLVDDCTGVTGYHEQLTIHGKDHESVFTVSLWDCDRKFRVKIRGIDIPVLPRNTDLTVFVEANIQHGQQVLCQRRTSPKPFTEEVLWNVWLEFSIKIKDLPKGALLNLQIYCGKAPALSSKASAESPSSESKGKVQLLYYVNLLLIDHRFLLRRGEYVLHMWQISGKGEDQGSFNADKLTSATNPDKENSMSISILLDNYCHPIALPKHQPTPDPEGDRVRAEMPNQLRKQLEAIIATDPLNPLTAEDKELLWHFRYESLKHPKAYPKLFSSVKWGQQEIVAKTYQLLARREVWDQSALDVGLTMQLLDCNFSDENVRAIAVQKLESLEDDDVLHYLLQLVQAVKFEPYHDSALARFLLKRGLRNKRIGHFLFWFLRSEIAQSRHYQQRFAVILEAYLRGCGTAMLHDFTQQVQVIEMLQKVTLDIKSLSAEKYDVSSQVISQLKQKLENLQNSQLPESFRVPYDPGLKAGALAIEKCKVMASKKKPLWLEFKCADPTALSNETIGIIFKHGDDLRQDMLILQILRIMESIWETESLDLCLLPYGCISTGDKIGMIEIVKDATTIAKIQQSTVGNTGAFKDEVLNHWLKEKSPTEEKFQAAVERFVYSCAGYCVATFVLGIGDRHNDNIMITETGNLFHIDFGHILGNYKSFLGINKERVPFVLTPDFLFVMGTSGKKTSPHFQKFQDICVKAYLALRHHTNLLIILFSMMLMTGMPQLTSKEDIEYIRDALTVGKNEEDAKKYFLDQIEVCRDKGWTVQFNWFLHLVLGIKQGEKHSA
Description for A549: Antiproliferative activity against human A549 cells after 72 hrs by SRB assay

Broadly, the pIC50 is −log10 of the IC50, conventionally taken in molar units. Turning to `COc1ncc(-c2ccc3ncc(C(=O)N4CCC(OC(=O)c5ccccc5)CC4)n3c2)cc1NS(=O)(=O)c1ccc(F)cc1F`, the negative logarithm of the IC50 (pIC50) in the test on SK-HEP1 is 5.69; with MDA-MB-231, 5.84; in the test on SNU-638 it was 5.86; in the test on HCT-116 it was 5.91; in the test with A549, 5.79.

For the compound `COc1ncc(-c2ccc3ncc(C(=O)NCCCN4CCOCC4)n3c2)cc1NS(=O)(=O)c1ccc(F)cc1F`, the pIC50 in test [1] is 8.42; with SK-HEP1, 6.40; in the test on MDA-MB-231, 6.52; with SNU-638, 6.52; in the test with HUVEC, 5.45; in test [2], 6.97. For the same compound, the pIC50 in test [3] was 7.43; in [4], 7.00; in the test on HCT-116 it was 7.00; with A549 it was 6.30.

Turning to `COc1ncc(-c2ccc3ncn(CCCn4ccccc4=O)c(=O)c3c2)cc1NS(=O)(=O)c1ccc(F)cc1F`, the pIC50 is 6.09 in the test on SK-HEP1; 6.82 with MDA-MB-231; 5.65 in the test with SNU-638; 5.87 in the test with HCT-116; 6.24 with A549.

In the case of `CCOC(=O)c1cn2cc(-c3cnc(OC)c(NS(=O)(=O)c4ccc(F)cc4)c3)ccc2n1`, the pIC50 in the test on SK-HEP1, with MDA-MB-231, in the test on SNU-638, in the test on HCT-116 and in the test on A549 was < 4.70 in each case.

With `COc1ncc(-c2ccc3ncn(CCCCC(=O)N4CCOCC4)c(=O)c3c2)cc1NS(=O)(=O)c1ccc(F)cc1F`, the pIC50 is 5.65 in the test on SK-HEP1; 5.74 in the test with MDA-MB-231; < 4.70 in the test with SNU-638; 5.95 in the test with HCT-116; 5.60 in the test on A549.

Consider `COc1ncc(-c2ccc3ncn(CCCCCC(=O)N4CCOCC4)c(=O)c3c2)cc1NS(=O)(=O)c1ccc(F)cc1F`, for which the pIC50 is 4.94 in the test on SK-HEP1; 5.67 in the test with MDA-MB-231; 4.71 with SNU-638; 5.65 in the test with HCT-116; 5.12 in the test with A549.

Take `CCOC(=O)Cn1cnc2ccc(-c3cnc(OC)c(NS(=O)(=O)c4ccc(F)cc4F)c3)cc2c1=O`: the pIC50 in the test on SK-HEP1 was 5.85; in the test with MDA-MB-231 it was 6.92; in the test on SNU-638, 6.52; in the test with HCT-116, 6.09; in the test with A549 it was 7.00.

Regarding `CCOC(=O)c1cnc2ccc(-c3cnc(OC)c(NS(=O)(=O)c4ccc(F)cc4F)c3)cn12`, the pIC50 in the test with SK-HEP1 is 6.52; in the test with MDA-MB-231, 6.92; in the test on SNU-638, 6.44; in the test with HCT-116, 7.05; in the test on A549, 6.52.

Consider `CCOC(=O)c1cnc2ccc(-c3cncc(NS(=O)(=O)c4ccccc4)c3)cn12`, for which the pIC50 in the test on SK-HEP1 was 5.96; in the test on MDA-MB-231, 6.12; with SNU-638 it was 6.17; in [2], 7.23; in test [3], 6.98; in the test on HCT-116 it was 6.27. The same compound had a pIC50 with A549 of 6.59. In addition, the inhibition result in the test filed under Homo sapiens [5] is “Active”.

`COc1ncc(-c2ccc3ncc(C(=O)NCc4ccncc4)n3c2)cc1NS(=O)(=O)c1ccc(F)cc1F`: the pIC50 is 6.01 in the test with SK-HEP1; 6.38 with MDA-MB-231; 6.31 with SNU-638; 6.51 with HCT-116; 6.30 with A549.

Consider `CCCCS(=O)(=O)Nc1cc(-c2ccc3ncc(C(=O)OCC)n3c2)cnc1OC`, for which the pIC50 in the test on SK-HEP1 was 6.08; in the test on MDA-MB-231 it was 5.63; with SNU-638 it was 6.29; with HCT-116, 5.31; with A549 it was 5.45.

As for `CCOC(=O)c1cc2cc(-c3cnc(OC)c(NS(=O)(=O)c4ccc(F)cc4)c3)ccc2[nH]1`, the pIC50 was 6.52 with SK-HEP1; 6.82 in the test with MDA-MB-231; 4.80 in the test on SNU-638; 5.89 in the test with HCT-116; < 4.70 in the test on A549.

Take `COc1ncc(-c2ccc3ncc(C(=O)O)n3c2)cc1NS(=O)(=O)c1ccc(F)cc1F`: the pIC50 is 6.12 with SK-HEP1; 6.43 with MDA-MB-231; 5.84 in the test with SNU-638; 5.88 with HCT-116; 5.94 in the test on A549.

`COc1ncc(-c2ccc3ncn(CCCn4ccnc4)c(=O)c3c2)cc1NS(=O)(=O)c1ccc(F)cc1F`: the pIC50 in the test with SK-HEP1 is < 4.70; in the test on MDA-MB-231 it was 4.93; with SNU-638, 6.60; in the test on HCT-116, 6.10; in the test with A549 it was 6.70.

For the compound `COc1ncc(-c2ccc3ncn(CCCN4CCOCC4)c(=O)c3c2)cc1NS(=O)(=O)c1ccc(F)cc1F`, the pIC50 is 8.19 in [1]; 6.22 in the test with SK-HEP1; 6.30 in the test with MDA-MB-231; 6.55 in the test on SNU-638; 5.05 in the test on HUVEC; 6.97 in test [2]. In addition, the pIC50 in [3] was 6.94; in [4] it was 7.16; in the test on HCT-116 it was 6.70; in the test with A549 it was 7.00.

Take `COc1ncc(-c2ccc3ncn(CCCn4cccn4)c(=O)c3c2)cc1NS(=O)(=O)c1ccc(F)cc1F`: the pIC50 is < 4.70 in the test on SK-HEP1; < 4.70 in the test with MDA-MB-231; 6.44 in the test with SNU-638; 5.40 in the test with HCT-116; 6.70 in the test on A549.

On to `COc1ncc(-c2ccc3ncc(C(=O)N4CCC(O)CC4)n3c2)cc1NS(=O)(=O)c1ccc(F)cc1F`, for which the pIC50 was 6.10 in the test on SK-HEP1; 6.20 in the test with MDA-MB-231; 6.57 in the test with SNU-638; 6.31 in the test on HCT-116; 6.32 in the test with A549.

Consider `CCOC(=O)c1cnc2ccc(-c3cnc(OC)c(NS(C)(=O)=O)c3)cn12`, for which the pIC50 is 6.77 with SK-HEP1; 6.72 with MDA-MB-231; 7.05 with SNU-638; 6.49 in the test with HCT-116; 6.64 with A549.

With `COc1ncc(-c2ccc3ncc(C(=O)NCCN(C)C)n3c2)cc1NS(=O)(=O)c1ccc(F)cc1F`, the pIC50 was < 4.70 in the test on SK-HEP1; 5.74 with MDA-MB-231; 6.29 with SNU-638; 6.85 in the test with HCT-116; 6.40 with A549.

For the compound `COc1ncc(-c2ccc3ncc(C(=O)NCCN4CCOCC4)n3c2)cc1NS(=O)(=O)c1ccc(F)cc1F`, in the test filed under Homo sapiens [6], the inhibition result is “Dose-dependent effect”. Besides, the pIC50 was 7.05 in test [2] and 7.35 in test [3].

For the compound `CCOC(=O)c1cnc2ccc(-c3cnc(OC)c(NS(=O)(=O)c4ccc(F)cc4)c3)cn12`, the pIC50 with SK-HEP1 was < 4.70; in the test on MDA-MB-231, 6.28; in the test on SNU-638, < 4.70; with HCT-116, 6.19; in the test with A549, 6.29.
